Patent US7432045B2 (priority 2003, dated 2008)
Square brackets hold non-standard residues; d marks the D form. Peptide text beside a SMILES is read from it. * marks the point of attachment. Biotin = O=C1N[C@H]2[C@H](CS[C@H]2CCCCC(=O)*)N1; Ahx = NCCCCCC(=O)O

Tests used:
HSV-1 KOS mutant hrR3 [1] = assay: Inactivation of pre-adsorbed virus (virus inactivation); type: cell-based; conditions: pre-adsorbed virus
hrR3 virions = assay: Inactivation of virions in solution; type: cell-based, HSV-1; conditions: 200 μM peptide
Method: Inactivation of virions: To assess the ability of peptides to inactivate virions, 3-4×10^6 pfu/mL of virus was mixed on ice with peptide in serum-free DMEM and incubated for 1 h at 4 or 37° C. Aliquots (10 μL) were diluted 1000-fold into peptide-free serum-supplemented DMEM at 23° C. and 50 μL aliquots were assayed in triplicate for infectivity in Vero cell cultures (dilution assay). Alternatively, 10 μL aliquots were diluted into 1 mL of ice-cold peptide-free serum-supplemented DMEM and the virus was pelleted as described above (centrifugation assay). Viral pellets were then resuspended in 250 μL serum-supplemented DMEM and 50 μL aliquots were assayed in triplicate for infectivity in Vero cell cultures.
Some of the virus diluted without the addition of NaCl was pelleted immediately (Control), while the rest of the diluted virus was stored at 4° C. and pelleted 19 h later. The virus was pelleted and assayed for infectivity as described in Example 1.

HSV-1 KOS mutant hrR3 [2] = assay: Release of preadsorbed virus into the culture medium; type: cell-based
Method: Release of preadsorbed virus into the culture medium: Virus preadsorbed to Vero cells (m.o.i.=0.02) was exposed to heparin (porcine intestinal mucosa; Sigma-Aldrich Co., St. Louis Mo.; #H9399) or to peptides in 40 μL of serum-supplemented DMEM. After 1 h at 4° C., the culture medium and two 40 μL rinses were collected and pooled from eight identically treated wells. Pooled samples were centrifuged at 14,000×g in an Eppendorf 5415 centrifuge for 99 min at 4° C. or they were first adjusted to 0.5 M NaCl by adding 2 M NaCl dissolved in serum-supplemented DMEM prior to centrifugation. Supernatants were aspirated, the pellets were resuspended in 120 μL serum-supplemented DMEM and duplicate 50 μL aliquots were assayed for infectivity in Vero cell cultures. Calculations of the amount of released virus assumed 47% virus recovery in the centrifugation step, since control experiments had established that 47% of virus input was recovered regardless of whether the virus was sedimented in the presence or absence of 0.5 M NaCl.
In this example pre-adsorbed virus was exposed to heparin (FIG. 19 Panels A, B) or TAT-Cd peptide (FIG. 19 Panels C, D) for 1 h at 4° C. (FIG. 19 Panels A, B, C) or 18° C. (FIG. 19 Panel D) and any virus released into the culture medium during this time was collected and pelleted in the presence (◯) or absence (▴) of 0.5 M NaCl and assayed for infectivity as described in Example 1. […] Virus inhibition (●) corresponds to the number of LacZ+ cells seen in the absence of inhibitor minus the number of LacZ+ cells seen in the presence of inhibitor and is equivalent to the maximal amount of virus potentially released into the culture medium as a result of virus inhibition. Panel B compares the amount of infectious virus recovered in the presence (◯; data from Panel A) and absence (▴) of 0.5 M NaCl at an expanded scale.

trypsin = target: T1, trypsin (Sus scrofa, UniProt P00761); assay: Trypsinization of peptides; conditions: 0.005 or 0.01% trypsin, 1 h at 37° C.
T1 construct: purchased BioWhittaker 17-160E
T1 sequence (P00761 9-231): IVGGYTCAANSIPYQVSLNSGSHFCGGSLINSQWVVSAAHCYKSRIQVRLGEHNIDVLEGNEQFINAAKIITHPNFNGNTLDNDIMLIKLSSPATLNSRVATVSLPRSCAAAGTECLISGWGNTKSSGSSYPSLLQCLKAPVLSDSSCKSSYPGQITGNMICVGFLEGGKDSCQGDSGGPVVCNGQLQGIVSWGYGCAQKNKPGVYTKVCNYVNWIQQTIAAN
Method: Trypsinization of peptides: Peptides dissolved in serum-free DMEM were exposed to 0.005 or 0.01% trypsin for 1 h at 37° C. The trypsin was then inactivated with a 1.3-fold molar excess of soybean trypsin inhibitor and the ability of the peptides to inactivate virions was tested as described above (centrifugation assay). In controls, trypsin was inactivated before it was added to the peptides.
In Panel B, peptides in serum-free medium were pre-treated with active trypsin (open bars) or inactivated trypsin (shaded bars) for 1 h at 37° C. before they were added to virions for 1 h at 37° C. (see Example 1). The treated virions were then pelleted and resuspended in serum-supplemented medium and assayed for infectivity without further trypsinization. The peptide concentrations were as high or higher than those used in Panel A: […] TAT-C, 50 μM bKLA, 200 μM EB and bHOM-9. Trypsin concentrations used in both Panels A and B, were 0.005% (for bKLA, EB and bHOM-9) or 0.01% (for TAT-C and the ‘no peptide’ control).

cornea = assay: In vivo peptide toxicity, cornea; design: species or system BALB/C mice; conditions: for punctate keratopathy: calcein staining; for blepharitis: four times a day for seven days
Method: (i) Cornea: Four-6-week-old female BALB/C mice (Harlan Sprague Dawley, Indianapolis, Ind.) were anesthetized by halothane inhalation (3-5%). A 2.0 μL drop of serum-free 5×DMEM solution containing 6.1 mM EB, 6.1 mM EBX, 7.5 mM TAT-C, 7.5 mM n50,51 TAT-C, 7.5 mM TAT-Cd, or 11.2 mM bHOMd or serum-free DMEM only (control) was then placed on the cornea and the mice were returned to their cages. Each group consisted of 5 mice, except for 11.2 mM bHOMd, and 7.5 mM TAT-Cd, which consisted of 4 mice. Only the right eye in each mouse received the peptide. Treatments were given 4 times per day at least 2 hrs apart for 7 days. On days 1, 5, and 7, the mice were examined microscopically for evidence of blepharitis, punctate keratopathy, dendrite ulceration and geographic ulceration. Damage to the corneal epithelium was assessed by staining with 1.0% […] and examination under a microscope with blue light. Blepharitis was scored: 1+ for noticeable puffy eyelids, 2+ for puffy eyelids with moderate crusting, 3+ for eye 50% swollen shut with severe crusting, and 4+ for eye totally swollen and crusted shut (Brandt et al., 1992). Punctate keratopathy, dendrite ulceration, and geographic ulceration were scored: 1+ for <25% of the cornea involved, 2+ for 25-50% involved, 3+ for 50-75% involved, and 4+ for >75% involved. The mean disease score for each group of mice on each day was calculated by the sum of disease scores in each group on each day divided by the numbers of mice in that group. On day 7, following the last treatment, the mice were sacrificed and the eyes were removed, fixed in 10% formalin, embedded in paraffin, sectioned (5μ each), and stained with hematoxylin and eosin as we have described previously (Brandt et al., 1996). Sections were then examined for evidence of damage to the cornea, sclera, lens, and retina.

[3] = test system: influenza A virus (Sydney 05/97,H3N2)
in vitro = conditions: African green monkey
HSV-1 KOS [4] = assay: Plaque reduction assay; type: cell-based
Method: Cell culture and virus: The procedures for growing Vero cells and preparing high titer stocks of HSV-1 KOS as described in Grau et al., Invest. Ophthal. and Vis. Sci. 30: 2474 (1989) were utilized. Vero cells were maintained in carbonate-buffered DMEM supplemented with 5% calf serum and 5% fetal bovine serum (regular medium). For some studies, cells were switched to serum-free DMEM buffered with 25 mM HEPES (pH 7.4) and allowed to adapt to that medium for 30 min prior to experimental treatments. Vero cells were seeded into wells (0.28 cm^2) of microtiter plates either at 3.5×10^4 cells/well for use 1 day later (8×10^4 cells/well) or at 1×10^4 cells/well for use 3 days later (2×10^5 cells/well).
Plaque reduction assay: Confluent Vero cell cultures in microtiter plates were infected for 1 hour at 37° C. in 40 μL of medium. Except where indicated, peptide treatments in 40 μL of medium lasted from 1 hour before through 1 hour after infection. At the end of the adsorption period, the cultures were re-fed with 100 μL of regular medium. Plaque formation was scored 2 days later and the number of plaques scored per well was normalized to the number counted in the absence of peptide. Using an ocular micrometer, plaque size (π/2×L×S) was determined by measuring the largest plaque diameter (L) and the diameter at a 90° angle to that (S). The size of each of the first 40 scored plaques was measured except when a plaque included less than 10 rounded cells or touched the side of the well.

HSV-1 KOS [5] = conditions: data not shown

Compound: N=C(N)NCCC[C@@H](NC(=O)CN)C(=O)N[C@H](CCCCN)C(=O)N[C@H](CCCCN)C(=O)N[C@H](CCCNC(=N)N)C(=O)N[C@H](CCCNC(=N)N)C(=O)N[C@H](CCC(N)=O)C(=O)N[C@H](CCCNC(=N)N)C(=O)N[C@H](CCCNC(=N)N)C(=O)N[C@H](CCCNC(=N)N)C(=O)N[C@H](CS)C(=O)O [TAT-Cd, NH2-GRKKRRQRRRC-COOH]
- plateau / maximal extent of virus inactivation (HSV-1 KOS mutant hrR3 [1]): ~100%
- recovery of infectious virions, of the mock-treated virus (hrR3 virions; 1 h at 37° C., pelleted immediately): < 1%
- increase of viral yields by 0.5 M NaCl during 19 h incubation, of the mock-treated controls (hrR3 virions; 19 h at 4° C.): about 1%
- inactivation of preadsorbed virus (HSV-1 KOS mutant hrR3 [2]; 18° C.): 93%
- virus recovery (HSV-1 KOS mutant hrR3 [2]; 18° C., 0.5 M NaCl): ≤ 5.6%
- potentially released virus actually recovered in the medium (HSV-1 KOS mutant hrR3 [2]; 1 h treatment at 4° C., 0.5 M NaCl): 4.4%
- infectious preadsorbed virus recovered in the culture medium (maximal) (HSV-1 KOS mutant hrR3 [2]; summary, FIG. 19): about 5%
- effect of trypsinization of the peptide on its antiviral activity (trypsin): no effect on antiviral activity
- punctate keratopathy (cornea): very mild punctate keratopathy
- blepharitis (cornea): mild blepharitis
- concentration at which not active against the H5 strain (H5 Avian Influenza virus): > 100 µM
- inhibition after rinsing with 0.5 M NaCl (hrR3; 30 μM peptide 1 h at 4° C.): completely reversed
- infection blocked (hrR3; 30 μM peptide 1 h at 4° C., rinsed with culture medium alone): 90%
- time needed to induce cellular resistance (hrR3; 30 μM peptide, 37° C.): almost instantaneously

Compound: CC[C@H](C)[C@H](NC(=O)[C@H](CCCCN)NC(=O)[C@@H](NC(=O)[C@H](CCC(N)=O)NC(=O)[C@H](CCCNC(=N)N)NC(=O)CCCCCNC(=O)CCCC[C@@H]1SC[C@@H]2NC(=O)N[C@@H]21)[C@@H](C)CC)C(=O)N[C@@H](Cc1c[nH]c2ccccc12)C(=O)N[C@@H](Cc1ccccc1)C(=O)N1CCC[C@H]1C(=O)N[C@@H](CC(N)=O)C(=O)N[C@@H](CCCNC(=N)N)C(=O)N[C@@H](CCCNC(=N)N)C(=O)N[C@@H](CCSC)C(=O)N[C@@H](CCCCN)C(=O)N[C@@H](Cc1c[nH]c2ccccc12)C(=O)N[C@@H](CCCCN)C(=O)N[C@@H](CCCCN)C(=O)N1CCC[C@H]1C(=O)NCC(=O)N[C@@H](Cc1ccc(O)cc1)C(=O)N[C@@H](C)C(=O)NCC(=O)N[C@@H](C)C(=O)N[C@H](C(=O)N[C@H](C(=O)N[C@@H](CC(N)=O)C(=O)N[C@@H](CC(=O)O)C(=O)N[C@@H](CC(C)C)C(=O)O)C(C)C)C(C)C [bHOM-9, b - RQIKIWFPNRRMKWKK-9] ({Biotin-Ahx}-RQIKIWFPNRRMKWKKPGYAGAVVNDL-OH)
- antiviral effect against influenza A virus versus cytotoxic effects [3]: antiviral and cytotoxic effects were inseparable
- IC50 (in vitro): 50 µM

Compound: CC[C@@H](C)[C@@H](NC(=O)[C@@H](CCCCN)NC(=O)[C@H](NC(=O)[C@@H](CCC(N)=O)NC(=O)[C@@H](CCCNC(=N)N)NC(=O)CCCCCNC(=O)CCCC[C@@H]1SC[C@@H]2NC(=O)N[C@@H]21)[C@H](C)CC)C(=O)N[C@H](Cc1c[nH]c2ccccc12)C(=O)N[C@H](Cc1ccccc1)C(=O)N1CCC[C@@H]1C(=O)N[C@H](CC(N)=O)C(=O)N[C@H](CCCNC(=N)N)C(=O)N[C@H](CCCNC(=N)N)C(=O)N[C@H](CCSC)C(=O)N[C@H](CCCCN)C(=O)N[C@H](Cc1c[nH]c2ccccc12)C(=O)N[C@H](CCCCN)C(=O)N[C@H](CCCCN)C(N)=O [bHOMd, b - RQIKIWFPNRRMKWKK-amide] ({Biotin-Ahx}-[dR][dQ][dI][dK][dI][dW][dF][dP][dN][dR][dR][dM][dK][dW][dK][dK]-NH2)
- punctate keratopathy (cornea): very mild punctate keratopathy
- blepharitis (cornea): mild blepharitis
- antiviral effect against influenza A virus versus cytotoxic effects [3]: blocks influenza A virus in the absence of cytotoxic effects
- cytotoxic effects (trypan blue staining) (MDCK cells): No cytotoxic effects

Compound: NH2 - RRKKAAVALLAVLLALLAPP-COOH (H-RRKKAAVALLAVLLALLAPP-OH) [EBPP]
- antiviral activity compared to EB (HSV-1 KOS [4]): twice as active
- activity compared to EB in yield reduction assay (HSV-1 KOS [5]): twice as active
